Measurements published in US9706772B2, “Method for fungicidal and/or bactericidal treatment of resistant strains using essential oil(s)” (XEDA INTERNATIONAL, priority 2011, dated 2017).

What was measured:
[1] = test system: Pennicillum spp. Strain resistant to Imazalil; assay: In-vitro inhibition of growth on PDA Petri dishes; format: cell-based
Method: (§1) The samples were added to the artificial media and gently mixed before solidification of the Agar solution.
(§2) A small amount of fungal spores is placed in the centre of the potato dextrose agar (PDA) in the Petri dishes at 25°±1° C. for 5/6 days. At the end of the incubation period, we measure the inhibition of the halo that is formed in comparison with the untreated PDA Petri dishes (control).
(§3) The results are indicated as a percentage of the incidence of the disease and the efficacy percentage of the products tested.

Pennicillum spp. = assay: In-vitro inhibition of growth on PDA Petri dishes; format: cell-based
Method: as §1, §2, §3

[2] = test system: Botrytis spp. Strain resistant to TBZ; assay: In-vitro inhibition of growth on PDA Petri dishes; format: cell-based
Method: as §1, §2, §3

[3] = test system: strains of Penicillium expansum resistant to pyrimethanil; assay: Efficacy of compositions on Gala apples, FIG. 1; format: in vivo; details: FIG. 1, "Gala" apples; over the doses shown
From the text: These compositions have been tested on various fungi or bacteria strains, such as illustrated in FIGS. 1 and 2. Unless otherwise indicated, the doses listed in the FIGS. 1 and 2 are given in ppm of active ingredient; the indications in ml/l refer to the quantity of composition C. […] Indeed it is observed that there is a synergistic effect between the fungicide and essential oils/terpene agents.

[4] = test system: Monilinia fructicola Strain resistant to Pyrimethanil; assay: In-vitro inhibition of growth on PDA Petri dishes; format: cell-based; details: dose not stated
Method: as §1, §2, §3

## Cc1ccc(C(C)C)c(O)c1 [Thymol]
[1]; Dose 100 ml/hl
  Efficacy (%): 70%
  Incidence of Disease (%): 30%
[1]; Dose 300 ml/hl
  Efficacy (%): 70%
  Incidence of Disease (%): 30%
[1]; Dose 500 ml/hl
  Efficacy (%): 80%
  Incidence of Disease (%): 20%
[1]; Dose 1,000 ml/hl
  Efficacy (%): 90%
  Incidence of Disease (%): 10%
Pennicillum spp.; Dose 100 ml/hl
  Efficacy (%): 20%
  Incidence of Disease (%): 80%
Pennicillum spp.; Dose 300 ml/hl
  Efficacy (%): 50%
  Incidence of Disease (%): 50%
Pennicillum spp.; Dose 500 ml/hl
  Efficacy (%): 70%
  Incidence of Disease (%): 30%
Pennicillum spp.; Dose 1,000 ml/hl
  Efficacy (%): 70%
  Incidence of Disease (%): 30%

## Cc1ccc(C(C)C)cc1O [Carvacrol]
[2]; Dose 100 ml/hl
  Efficacy (%): 100%
  Incidence of Disease (%): 0%
[2]; Dose 300 ml/hl
  Efficacy (%): 100%
  Incidence of Disease (%): 0%
[2]; Dose 500 ml/hl
  Efficacy (%): 100%
  Incidence of Disease (%): 0%
[2]; Dose 1,000 ml/hl
  Efficacy (%): 100%
  Incidence of Disease (%): 0%
[2]; at all doses tested
  control (in words): total control

## Cc1cc(C)nc(Nc2ccccc2)n1 [pyrimethanil]
[3]
  efficacy: at most 60%
[4]
  efficacy: 45%
